# From a melting point compilation (Tetko et al.; mined from patent text by program, amines drawn as free bases though some values may be those of a salt)
row,SMILES,melting point [°C]
1,O=C(O)c1ccc(CN(C(=O)Nc2cc(C(F)(F)F)cc(C(F)(F)F)c2)c2ccc(C3CCCCC3)cc2)cc1,148 to 150
2,CC(=O)OC(CN(Cc1ccccc1)Cc1ccccc1)c1cc(C#N)c2c(c1)CCN2C(C)=O (stereo not given),108 to 109
3,Cc1cc(-n2c(C)nc3ccccc32)cc2ccc(=O)[nH]c12,307 to 313
4,CCC(=O)N(C)c1cccc(-c2ccnc3c(C(=O)c4ccccc4)cnn23)c1,154 to 156
5,CCN(CC)C(=S)NC1CC2c3cccc4[nH]c(I)c(c34)CC2N(C)C1 (stereo not given),198
6,CCCCOc1ccc(S(=O)(=O)NC(=O)c2ccc(C(=O)OC)nc2)cc1,174 to 176
7,O=C(NCCc1ccccc1)c1cc2c(cn1)[nH]c1ccccc12,297 to 298
8,COc1ccc(N(c2ccc(OC)cc2)c2ccc(-c3ccc(N(c4ccc(OC)cc4)c4ccc5ccc6cccc7ccc4c5c67)cc3)cc2)cc1,211 to 213
9,CCNc1nc2n(n1)CCc1ccccc1-2,100 to 101
10,CCC1SC(N(C)C(=O)NC)=NN1C(=O)C(C)(C)C (stereo not given),144 to 146
11,COc1cc(C)cc(C(=O)NC(C)P(=O)(O)O)c1C1=CC(=O)c2c(O)cccc2C1=O (stereo not given),> 300
12,CC(=O)N(C#N)C1(c2ccc(OCc3ccc4ccccc4n3)cc2)CCCCC1,90
13,COc1ccc(CCOc2cccc(-c3cccc(C(=O)O)c3)n2)cc1OC,147 to 148
14,CCNC(=S)N1CCc2[nH]cnc2C1,185
15,O=C(c1cc2c(cc1F)OC(c1ccccc1Cl)(c1ccccc1Cl)O2)N1CCOCC1,98
16,CS(=O)(=O)Nc1nc(CCCN2CCN(C(c3ccccc3)c3ccccc3)CC2)cs1,181 to 183

row,SMILES,melting point [°C]
1,Nc1nc2ccccc2c2c1nc1n2C(COCc2ccccc2)COC1 (stereo not given),185 to 186
2,O=C(Nc1ccc(C(=O)SCC2C(=O)OCC2c2ccccc2)cc1)OCc1ccccc1 (stereo not given),160 to 162
3,CNC(=O)N1CCSC1c1ccc(O)cc1 (stereo not given),218 to 220
4,O=C(Nc1ccc(Oc2ccccc2F)nc1)N1CCc2ccccc2CC1,170 to 172
5,CNC(=O)N(O)C(C)c1ccc(C(F)(F)F)cc1 (stereo not given),124 to 125
6,CCCc1nc(Cl)nc(NCCO)n1,87 to 88
7,O=C(Cn1c(-c2cccc(Cl)c2)nc2cccnc21)NCCN1CCCCC1,114 to 115
8,COCC(=O)NCC(=O)N1CC1C#N (stereo not given),70 to 72
9,O=[N+]([O-])c1cc(Cl)c(N=C2NCCCN2)c(Cl)c1,265
10,C=CCOc1cc(CNc2nc(C)nc(C)c2Cl)ccc1O,124 to 126
11,COc1ccc2c(c1)C(=O)CC1C2C(OC(=O)C(C)(C)C)CC2(C)C(OC(=O)C(C)(C)C)CCC12 (stereo not given),183 to 184
12,Cc1ccc(C(=O)NC(NC(=S)Nc2cccc([N+](=O)[O-])c2)C(C)(C)C)cc1 (stereo not given),181 to 182
13,O=C(NCc1ccc(Cl)cc1)c1cn2c3c(cc(I)cc3c1=O)CC2CO (stereo not given),222 to 223
14,Cc1c(N2CC(O)C2)c(F)cc2c(=O)c(C(=O)O)cn(-c3nc(N)c(F)cc3F)c12,245 to 247
15,Cc1ccc(=Nc2nnc(C(F)(F)F)s2)n(-c2cccc(C(F)(F)F)c2)c1,179

# More lines, now with the values ahead:
row,melting point [°C],SMILES
1,190 to 193,CCCCc1nc2c(N)nc3ccccc3c2n1CCCCS(=O)(=O)c1ccc(F)cc1F
2,208 to 209,CC(=O)c1c(-c2ccncc2)[nH]c(-c2ccccc2)c1C
3,82,Cc1cccc(C)c1NCC(=O)c1ccc(Cl)cc1
4,149 to 151,CC1ON=C(c2ccc(F)cc2)C1CN(O)C(N)=O (stereo not given)
5,151 to 152,CS(=O)(=O)c1ccc(C2=C(c3cccc(F)c3F)CCC2)cc1
6,149 to 150,CCOc1ccc(-c2nc(OC(C)=O)c(-c3ccccc3)s2)cc1
7,121 to 122,COc1cc(CO)ccc1OCc1nc(N2CCOCC2)sc1C
8,178 to 180,COc1ccc(N2C(=O)C(O)C2c2ccccc2Cl)cc1 (stereo not given)
9,115 to 117,NC1CCN(c2ccc([N+](=O)[O-])cn2)CC1
10,179 to 181,O=C1NCC=NN1c1cc(Cl)cc(Cl)c1
11,134 to 135,CNC(=O)N1CC(Oc2cccc(Br)c2)C1
12,161 to 163,Nc1cccc(-c2ccc(CCN3CC4C(C3)C4NC(=O)Cc3ccc(F)cc3)cc2)n1 (stereo not given)
13,90 to 91,OC1(F)OC(F)(F)C1(F)F (stereo not given)
14,195 to 198,CNC(=O)Nc1sc2nc(C)ccc2c1C(=O)N1CCC(N2CCCC3(CCN(C(C)C)C3=O)C2)CC1 (stereo not given)
15,153 to 154,COC(=O)C1(NC(C)=O)CCc2cc(OC)ccc2C1 (stereo not given)
16,135 to 137,CC(C)(C)c1cc(C(=O)c2cccnc2Cl)cc(C(C)(C)C)c1O
17,126 to 128,CSCCN1C(=O)c2ccccc2Oc2nc(Cl)ccc21
18,248 to 250,COc1ccc(-n2c(CC(=O)O)c(C(=O)O)c3cc(Oc4ccc(C(F)(F)F)cc4)ccc32)cc1
19,175 to 176,CN1CNC(=S)N(c2ccccc2)C1
20,118 to 119,Cc1oc(-c2ccccc2)nc1COc1ccc2c(-c3ccccc3)c(COc3nn(-c4ccccc4)cc3CO)oc2c1

row,melting point [°C],SMILES
1,127 to 128,Cc1ccc(C(=O)c2ccc(F)cc2)nc1
2,187 to 189,CC1CCC(C(C)C)C(OC(=O)c2ccc(N)cc2O)C1 (stereo not given)
3,190 to 194,COc1ccc(C(=O)Nc2ccccc2)cc1NS(=O)(=O)c1ccccc1
4,216 to 218,O=C(O)Cc1c(-c2ccccc2)c2cc3c(cc2oc1=O)CCC3
5,231 to 233,O=C(c1ccc([N+](=O)[O-])cc1)N1CCCCc2ncccc21
6,136 to 139,CN(C)CCCN(C)C(=O)Nc1ccc(-c2nnc(CSCCOc3ccccc3)o2)cc1
7,173 to 218,COc1ccc(-c2ccncc2)cc1-c1ccc(Oc2ccccc2)cc1
8,172,CNC(=O)C(NC(=O)c1ccc(F)cc1C(F)(F)F)C(O)CSc1cccc(F)c1 (stereo not given)
9,120,Cc1ccc(CCCO)c(NCc2ccc3nc(NCCCN4CCOCC4)n(Cc4nc(C)c(C)nc4C)c3c2)c1
10,181 to 185,N#Cc1c(N2CCN(C(=O)c3ccc(C(F)(F)F)cc3)CC2)c2ccccc2n(Cc2ccc(F)cc2)c1=O
11,107 to 113,N#Cc1nc(Cl)c(-c2c(F)cc(F)cc2F)c(N2CCCO2)n1
12,189,O=c1[nH]c2ccccc2n1CCCN1CCC(O)(c2ccc(Cl)c(C(F)(F)F)c2)CC1
13,104 to 106,CN(C)C1CCC(c2c[nH]c3ccc(NC(=N)c4cccs4)cc23)CC1 (stereo not given)
14,158 to 159,CC(C)c1nc(C(C)C)c(CCc2ccccc2)c(-c2ccc(F)cc2)c1CO
15,215 to 216,NC(=O)c1c(C(=O)O)cnn1-c1cccc(F)c1
16,223 to 226,CN1CCN(c2ccc(/C=C/C(=O)O)cc2)CC1
17,118 to 120,CC(OCc1cc2cc(C(F)(F)F)ccc2n1S(=O)(=O)c1ccc2c(c1)OCCN2C)C(=O)O (stereo not given)
18,66 to 68,CC#CCOc1ccc(S(=O)(=O)NC2(C(=O)NO)CCCC2)cc1
19,82 to 84,CCC(CC)Nc1cc(C)nc(Cl)c1[N+](=O)[O-]
